Reference: patent US11090313B2, “Methods for inhibiting muscle atrophy” (UNIVERSITY OF IOWA RESEARCH FOUNDATION, priority 2010, dated 2021)
“Also recorded” adds a separate entry of the source.

Experiments:
Type in all cases: in vivo, mouse
C57BL/6 mice = assay: Fasting-induced muscle atrophy in mice (i.p. dosing, 24 h fast); settings: for skeletal muscle weight in fasted mice (fasting-induced muscle atrophy) / fasting blood glucose: i.p. at 0 and 12 h of 24 h fast; for skeletal muscle weight in fasted mice (fasting-induced muscle atrophy): vs vehicle, mg/kg: ursolic acid 200, oleanolic acid 200, metformin 250, tomatidine 50, allantoin 2, tacrine 4, ungerine 2, hippeastrine 2, conessine 2; for fasting blood glucose: mice, mg/kg: metformin 250, ursolic acid 200, hippeastrine 2, conessine 2
Description: The mice were then fasted, and after 12 hours of fasting, the mice received a second dose of the compound or vehicle. After 24 hours of fasting, the blood glucose was measured and muscles were harvested. The data shown in FIGS. 6C-6H are means±SEM from ≤16 mice per condition. […] The effects of metformin and ursolic acid on fasting-induced muscle atrophy were also examined, i.e. the effect of 24 h fast (relative to ad lib feeding) on wet weight of lower hindlimb skeletal muscle (bilateral tibialis anterior (“TA” muscle), gastrocnemius, and soleus; see FIGS. 6E-6G). […] In FIGS. 6E-6H, each data point represents one mouse and the horizontal bars denote the means. In FIGS. 6C-6H, P-values were determined using unpaired t-tests.
Mice were then fasted, and after 12 hours of fasting, mice received a second dose of ursolic acid, oleanolic acid, or vehicle. After 24 hours of fasting, lower hindlimb skeletal muscles and liver were harvested and weighed.
To test this, food was withdrawn from mice, and then vehicle, ursolic acid (200 mg/kg) or tomatidine (50 mg/kg) were administered by i.p. injection. Twelve hours later, mice received another i.p. injection of vehicle or the same dose of ursolic acid or tomatidine. Twelve hours later, skeletal muscles were harvested and weighed. […] We next used the same protocol to compare the effects of vehicle (corn oil) and tomatidine (5, 15 and 50 mg/kg).

mice [1] = assay: Immobilization-induced skeletal muscle atrophy model (stapled tibialis anterior); settings: for immobilization-induced muscle atrophy (weights of immobile vs mobile TA): 2 days before and 6 days after immobilization, ursolic acid and betulinic acid varying doses, naringenin 200 mg/kg, tomatidine 5-200 mg/kg
Description: To test this, a mouse model of immobilization-induced skeletal muscle atrophy was used: mice were administered vehicle (corn oil) or varying doses of ursolic acid (positive control) or betulinic acid via intraperitoneal injection twice a day for two days. One tibialis anterior (TA) muscle was immobilized with a surgical staple, leaving the contralateral mobile TA as an intra-subject control. The vehicle or the same dose of ursolic acid or betulinic acid was continuously administered via i.p. injection twice daily for six days before comparing weights of the immobile and mobile TAs.
To test this, mice were administered vehicle (corn oil), ursolic acid (200 mg/kg), naringenin (200 mg/kg), or the combination of ursolic acid and naringenin (each at 200 mg/kg) via i.p injection twice a day for two days. One tibialis anterior (TA) muscle was immobilized with a surgical staple, leaving the contralateral mobile TA as an intrasubject control. Vehicle or the same doses of ursolic acid and/or naringenin was continuously administered via i.p. injection twice daily for six days before comparing weights of the immobile and mobile TAs.
To test this, mice were administered vehicle (corn oil) or tomatidine (50, 100 or 200 mg/kg) via i.p injection twice a day for two days. One tibialis anterior (TA) muscle was immobilized with a surgical staple, leaving the contralateral mobile TA as an intrasubject control. Vehicle or the same doses of tomatidine was administered via i.p. injection twice daily for six days before comparing weights of the immobile and mobile TAs. […] The same protocol was used to compare the effects of vehicle (corn oil) and tomatidine (5, 15 or 50 mg/kg) on immobilization-induced muscle atrophy.

mice [2] = assay: High fat diet with ursolic acid and/or naringenin; settings: HFD with ursolic acid 0.15% and/or naringenin 0.5% or 1.5%, 5 weeks
Description: To determine this, weight-matched mice were provided ad libitum access to standard (Harlan Teklad formula 7013), high fat diet (HFD; Harlan Teklad formula TD93075), or HFD containing varying concentrations of ursolic acid (0.15%) and/or naringenin (0.5% or 1.5%). After the mice consumed these diets for 5 weeks, fasting blood glucose, total body weight, fat mass, liver weight, grip strength, and skeletal muscle weight was measured.

Row | SMILES | skeletal muscle weight in fasted mice (fasting-induced muscle atrophy) (C57BL/6 mice) | fasting blood glucose (C57BL/6 mice) | further results
1 | CN1CCC2=C[C@@H](O)[C@@H]3OC(=O)c4cc5c(cc4[C@@H]3[C@H]21)OCO5 [hippeastrine] | increased muscle weight in fasted mice; also recorded: reduce fasting-induced muscle atrophy | reduce fasting blood glucose | 
2 | C[C@H]1CC[C@]2(NC1)O[C@H]1C[C@H]3[C@@H]4CC[C@H]5C[C@@H](O)CC[C@]5(C)[C@H]4CC[C@]3(C)[C@H]1[C@@H]2C [tomatidine] | increased skeletal muscle; also recorded: increased muscle weight in fasted mice; also recorded: reduces fasting-induced muscle atrophy |  | dose of maximal inhibition of immobilization-induced muscle atrophy (mice [1]; i.p. twice daily): 50 mg/kg; potency relative to ursolic acid in immobilization-induced muscle atrophy (mice [1]; i.p. twice daily): more potent than ursolic acid; immobilization-induced muscle atrophy (weights of immobile vs mobile TA) (mice [1]; i.p. twice daily): reduced muscle atrophy; also recorded: reduces immobilization-induced muscle atrophy; EC50, reduction of immobilization-induced muscle atrophy (mice [1]; tomatidine 5, 15 or 50 mg/kg i.p. twice daily): < 5 mg/kg; dose of maximal effect on fasting-induced muscle atrophy (C57BL/6 mice; tomatidine 5, 15 and 50 mg/kg i.p. twice, 24 h fast): 50 mg/kg
3 | C[C@H]1[C@H]2CC[C@H]3[C@@H]4CC=C5C[C@@H](N(C)C)CC[C@]5(C)[C@H]4CC[C@]23CN1C [conessine] | increased muscle weight in fasted mice; also recorded: reduce fasting-induced muscle atrophy | reduce fasting blood glucose | 
4 | O=C1CC(c2ccc(O)cc2)Oc2cc(O)cc(O)c21 (stereo not drawn) [naringenin] |  |  | immobilization-induced muscle atrophy (weights of immobile vs mobile TA) (mice [1]; i.p. twice daily): reduced muscle atrophy; also recorded: reduces immobilization-induced skeletal muscle atrophy; fasting blood glucose in high fat fed mice (mice [2]): partially prevented
5 | CC1(C)CC[C@]2(C(=O)O)CC[C@]3(C)C(=CC[C@@H]4[C@@]5(C)CC[C@H](O)C(C)(C)[C@@H]5CC[C@]43C)[C@@H]2C1 [oleanolic acid, reference compound] | do not reduce skeletal muscle atrophy |  | 
6 | NC(=O)NC1NC(=O)NC1=O (stereo not drawn) [allantoin] | increased muscle weight in fasted mice; also recorded: reduce fasting-induced muscle atrophy |  | 
7 | CO[C@@H]1C=C2CCN(C)[C@@H]2[C@H]2c3cc4c(cc3C(=O)O[C@H]21)OCO4 [ungerine] | increased muscle weight in fasted mice; also recorded: reduce fasting-induced muscle atrophy |  | 
8 | Nc1c2c(nc3ccccc13)CCCC2 [tacrine, reference compound] | increased muscle weight in fasted mice; also recorded: reduce fasting-induced muscle atrophy |  | 
9 | CN(C)C(=N)N=C(N)N [metformin, reference compound] | did not alter muscle weight; also recorded: do not reduce skeletal muscle atrophy | significantly reduced fasting blood glucose | 
